From EP0791056B1, “LIPID-CLEAVAGE ENZYME COMPLEX” (priority 1994, dated 1996)
“And” between values parts separate entries of the source, which are not always exact repeats. Identical values can stand only once.

What was measured:
LCE [1] = assay: LCE assay: cleavage of [14C]-AZT-DMDOPE/AZT-DMDOPE to DMDOP by fractions of human blood cells; assay type: biochemical; details: for Spezifische Aktivität: n = 4; for spezifische LCE-Aktivität / AZT-DMDOPE-spaltende Aktivität (spezifische Aktivität des LCE): n = 6; for Km / vmax: membrane fraction 0.068 mg/Ansatz
Procedure: Das Pipettierschema ist in der folgenden Tabelle angegeben. Tabelle
Zur Untersuchung der enzymatischen Spaltung in Abhängigkeit von der Substratkonzentration wurde eine Substratstammlösung von 0.98 nmol [^14C]-AZT-DMDOPE und 0.7 nmol AZT-DMDOPE/80 µl Aqua bidest. im LCE-Assay angesetzt. Die verschiedenen Substratkonzentrationen im LCE-Assay wurden durch kontinuierliche Verdopplung bzw. Halbierung des Volumens an Substratlösung eingestellt. Die Ansätze wurden in Glasröhrchen (5 ml) vorgelegt und durch Zugabe der Substratlösung gestartet. Die Inkubation wurde bei 37 °C im Wasserbad unter leichtem Schütteln durchgeführt.
Die Reaktionsansätze des LCE-Assays wurden nach entsprechender Inkubationszeit dem Wasserbad entnommen, und die Reaktion durch Zugabe von 750 µl 2-Propanol gestoppt. Nach gründlicher Durchmischung wurden die Ansätze anschließend mit 700 µl auf Raumtemperatur erwärmtem n-Heptan versetzt. Die Ansätze wurden erneut für 30 sec gut gemischt und zur Beschleunigung der Phasentrennung in der Minifuge T bei 3200 rpm für 15 min bei Raumtemperatur zentrifugiert. Anschließend wurden 500 µl der oberen Phase (n-Heptan) entnommen und in neue Glasröhrchen (5 ml) mit 10 mg Kieselgel 60 H und 200 µl n-Heptan überführt. Die Ansätze wurden für 30 sec gut durchmischt und zur Sedimentation des Kieselgels für 10 min unter oben genannten Bedingungen zentrifugiert. Vom Überstand wurden anschließend 500 µl entnommen und mit 3 ml Szintillationsflüssigkeit versetzt. Die Messung der Radioaktivität erfolgte für 4 min im Flüssigkeits-Szintillations-Analysator. Zur Bestimmung des Absolutwertes an Radioaktivität wurden 200 µl der Substratlösung mit 3 ml Szintillationsflüssigkeit versetzt und unter gleichen Bedingungen im Flüssigkeits-Szintillations-Analysator gemessen.
Für diese Untersuchungen ist ein Enzym-Assay etabliert, in dem AZT-DMDOPE und [^14C]-AZT-DMDOPE als Substrat eingesetzt wurde (Beispiel 6). […] Bei substratabhängigen Umsetzungen wurde eine Stammlösung von 0.98 nmol [^14C]-AZT-DMDOPE und 0.7 nmol AZT-DMDOPE /80 µl eingesetzt. Die verschiedenen Substratkonzentrationen wurden anschließend durch kontinuierliche Verdopplung bzw. Halbierung des Volumens an Substratlösung eingestellt.
Die Quantifizierung der enzymatischen Spaltung von AZT-DMDOPE wurde durch eine zweistufge Extraktion des Metaboliten DMDOP mit n-Heptan und anschließender Adsorption von Resten des Substrates AZT-DMDOPE an Kieselgel 60 H durchgeführt. Hierbei wurden die Reaktionsansätze mit 2-Propanol und n-Heptan versetzt. wobei sich das im Vergleich zum Substrat unpolare DMDOP in der n-Heptan-Phase anreichert. Die n-Heptan-Phase wurde dann mit Kieselgel 60 H versetzt, wobei Reste des Substrates AZT-DMDOPE adsorbiert werden. Die n-Heptan-Phase wurde anschließend durch Zentrifugation vom Kieselgel separiert, in 3 ml Aqua luma überführt und die in ihr enthaltene Menge an radioaktiv markiertem DMDOP im Flüssigkeits-Szintillations-Analysator über einen Zeitraum von 5 min bestimmt. Aus diesen Ergebnissen konnte die prozentuale Umsetzung des Substrates AZT-DMDOPE zu DMDOP und die spezifische Aktivität des LCE errechnet werden. Als spezifische Aktivität wurde hierbei die Menge an DMDOP bezeichnet die pro 1 mg Protein der eingesetzten Zellpräparationen pro Minute gebildet wurde.
Nach Bestimmung der Proteinkonzentration in Zellhomogenaten, Zytosol- und Membranfraktionen mit Hilfe des Bicinchoninsäure(BCS)-Tests wurden 0.025 - 0.20 mg Protein/Ansatz eingesetzt.
Zur Isolierung der Plasmamembranen wurden 2 ml einer Zellsuspension stimulierter humaner PBL mit einer Zelldichte von 2.5 x 10^8 Zellen/ml durch dreimaliges Einfrieren und Auftauen aufgeschlossen und durch Zentrifugation im Percoll-Dichtegradienten fraktioniert.

LCE [2] = assay: Substrate cleavage by LCE; assay type: biochemical; details: cleavage to drug monophosphate and DMDOP
Excerpt: Das Enzym wird vorzugsweise aus humanen peripheren Blutleukozyten, die zuvor durch PHA oder andere Stimulantien (z.B. Cytokine, etc.) aktiviert wurden, oder aus murinen Nierenzellen isoliert. Aus vorläufigen Untersuchungen ergibt sich ein Molekulargewicht von etwa 120.000 - 160.000, bestimmt nach der SDS-PAGE-Methode. Zellen, die dieses Enzym enthalten, können auf einfache Weise dadurch identifiziert werden, indem sie unter geeigneten Testbedingungen mit einer Lösung von AZT-DMDOPE oder FLT-DMDOPE versetzt werden und die Spaltprodukte AZT-monophosphat bzw. FLT-monophosphat oder DMDOP nachgewiesen werden, beispielsweise durch dünnschichtchromatographische Methoden oder im Fall von radioaktiv markierten Proben durch szintillatographische Verfahren (siehe Beispiele 4 - 7). Im Gegensatz zu den biochemisch verwandten Phospholipasen C oder -D wird das LCE nicht durch bekannte Inhibitoren von Phospholipase C oder -D gehemmt oder durch Aktivatoren von Phospholipase C oder -D aktiviert. Im Gegensatz zu Phospholipase C wird das Enzym durch die Substanz D 609 (Tricyclodecan-9-yl-xanthogenat; C11H15OS2 K) aktiviert, während D 609 Phospholipase C inhibiert.

[3] = humane Monozyten/Makrophagen (stimulierte Monozyten), 37 °C, 2 h
[4] = nichtstimulierte humane PBL, 37 °C, 2 h
[5] = stimulierte humane PBL, 37 °C, 2 h

CCCCCCCCCCCCSCC(COP(=O)(O)OC[C@H]1O[C@@H](n2cc(C)c(=O)[nH]c2=O)C[C@@H]1N=[N+]=[N-])OCCCCCCCCCC (some centres unmarked) [AZT-DMDOPE, (3'-Desoxy-3'-azidothymidin)-5'-phosphorsäure-(3-dodecyl-mercapto-2-decyloxy)-propylester]
höchste spezifische LCE-Aktivität (LCE [1]; Fraktion 8 (plasma membrane enriched) of Percoll gradient, stimulierte humane PBL, 0.05 mg protein/Ansatz, 37 °C, 2 h): 4.40 pmol mg^-1 min^-1 min | Spezifische Aktivität (LCE [1]; Membranfraktion humaner Monozyten isolated in hypertonic density gradient, linear range): 3.2 + 0.60 pmol mg^-1 min^-1 | Spezifische Aktivität (LCE [1]; Membranfraktion humaner Monozyten/Makrophagen (stimulated by adherence)): 8.8 ± 0.26 pmol/mg/min | spezifische LCE-Aktivität (LCE [1]; Membranfraktion nichtstimulierter humaner PBL, calculated from linear range): 1.45 ± 0.32 pmol/mg/min | spezifische LCE-Aktivität (LCE [1]; Membranfraktionen stimulierter humaner PBL, 2 h 37 °C): 14.23 ± 0.70 pmol/mg/min and 14.23 ± 0.7 pmol/mg/min | AZT-DMDOPE-spaltende Aktivität (spezifische Aktivität des LCE) (LCE [1]; Zellhomogenate stimulierter humaner PBL, 2 h 37 °C): 6.48 ± 0.38 pmol/mg/min | AZT-DMDOPE-spaltende Aktivität (spezifische Aktivität des LCE) (LCE [1]; Zytosolfraktionen stimulierter humaner PBL, 2 h 37 °C): 1.65 ± 0.40 pmol/mg/min | spezifische Aktivitäten (LCE [1]; all further fractions of Percoll gradient, stimulierte humane PBL, 0.05 mg protein/Ansatz, 37 °C, 2 h): 1.10 to 1.90 pmol/mg/min | Km (LCE [1]; humane Monozyten, 37 °C, 2 h): 12.1 ± 4.13 µM | vmax (LCE [1]; humane Monozyten, 37 °C, 2 h): 1.61 ± 0.37 pmol/mg/min | Km (LCE [1]; [3]): 4.63 ± 0.45 µM | vmax (LCE [1]; [3]): 9.09 ± 0.44 pmol/mg/min | Km (LCE [1]; [4]): 5.51 ± 0.99 µM | vmax (LCE [1]; [4]): 2.03 ± 0.19 pmol/mg/min | Km (LCE [1]; [5]): 2.26 ± 0.16 µM | vmax (LCE [1]; [5]): 15.29 ± 0.37 pmol/mg/min | Spaltung durch LCE (LCE [2]): spaltet
